How the values were obtained:
[1] = molecular target: T1, GABAA receptors composed of the α4β3δ subunits (GABRA4/GABRB3/GABRD) (Homo sapiens, UniProt P28472+P48169); experiment: Two Electrode Voltage Clamp (TEVC), GABA receptor potentiation in Xenopus laevis oocytes, α4β3δ; format: cell-based; settings: 10 μM compound, 3 μM GABA, read-out: GABA (α4β3δ) % efficacy at 10 μM
T1 construct: expressed in transfected cells; host or cells: Xenopus laevis oocytes, injected (ratio 5:1:5)
Description: (§1) The Two Electrode Voltage Clamp (TEVC) technique was used to investigate the effects of compounds at a concentration of 10 μM on GABAA receptors composed of the α1β2γ2 or α4β3δ subunits expressed in oocytes from the Xenopus laevis. GABA-evoked currents were recorded from oocytes that expressed the GABA receptors and the modulatory effects of the test items on these currents were investigated.
(§2) Ovaries were harvested from Xenopus laevis females that had been deeply anesthetized by cooling at 4° C. and immersion in Tricaine methanesulfonate (MS-222 at a concentration of 150 mg/L) in sodium bicarbonate (300 mg/L). Once anesthetized the animal was decapitated and pithed following the rules of animal rights from the Geneva canton. A small piece of ovary was isolated for immediate preparation while the remaining part was placed at 4° C. in a sterile Barth solution containing in mM NaCl 88, KCl 1, NaHCO3 2.4, HEPES 10, MgSO4·7H2O 0.82, Ca(NO3)2·4H2O 0.33, CaCl2·6H2O 0.41, at pH 7.4, and supplemented with 20 μg/ml of kanamycin, 100 unit/ml penicillin and 100 μg/ml streptomycin. All recordings were performed at 18° C. and cells were super-fused with medium containing in mM: NaCl 82.5, KCl 2.5, HEPES 5, CaCl2·2H2O, ·6H2O 1, pH 7.4.
(§3) Plasmids containing the RNAs of the human GABRA1/GABRB2/GABRG2 and GABRA4/GABRB3/GABRD genes were injected into oocytes using a proprietary automated injection device (Hogg el al., J. Neurosci. Methods, (2008) 169: 65-75). These genes encode for the α1β2γ2 and α4β3δ GABAA subunits respectively. Receptor expression was assessed using electrophysiology at least two days later. The ratio of RNA injection for α1β2γ2 was 1:1:1 and for α4β3δ was 5:1:5. Electrophysiological recordings were made using an automated process equipped with standard TEVC and data were captured and analyzed using a proprietary data acquisition and analysis software running under Matlab (Mathworks Inc.). The membrane potential of the oocytes was maintained at −80 mV throughout the experiments. To explore the effects of proprietary compounds, currents were evoked by applying 10 μM (α1β2γ2) or 3 μM (α4β3δ) GABA for 30 s. These concentrations approximated the EC50 concentration of GABA at each receptor subtype. Oocytes were then re-exposed to GABA again for 30 s. 15 s after beginning the GABA application, test article was co-applied at a concentration of 10 μM for 15 s. Potentiation of the peak current was assessed. Data was filtered at 10 Hz, captured at 100 Hz and analyzed using proprietary data acquisition and analysis software running under Matlab (Mathworks Inc.). For statistical analysis values were computed either with Excel (Microsoft) or Matlab (mathworks Inc.). To obtain mean measurements with standard deviations, all experiments were carried out using at least three cells.

[2] = molecular target: T2, GABAA receptors composed of the α1β2γ2 subunits (GABRA1/GABRB2/GABRG2) (Homo sapiens, UniProt P14867+P47870); experiment: Two Electrode Voltage Clamp (TEVC), GABA receptor potentiation in Xenopus laevis oocytes, α1β2γ2; format: cell-based; settings: 10 μM compound, 10 μM GABA, read-out: GABA (α1β2γ2) % efficacy at 10 μM
T2 construct: expressed in transfected cells; host or cells: Xenopus laevis oocytes, injected (ratio 1:1:1)
T2 sequence (P14867 28-456): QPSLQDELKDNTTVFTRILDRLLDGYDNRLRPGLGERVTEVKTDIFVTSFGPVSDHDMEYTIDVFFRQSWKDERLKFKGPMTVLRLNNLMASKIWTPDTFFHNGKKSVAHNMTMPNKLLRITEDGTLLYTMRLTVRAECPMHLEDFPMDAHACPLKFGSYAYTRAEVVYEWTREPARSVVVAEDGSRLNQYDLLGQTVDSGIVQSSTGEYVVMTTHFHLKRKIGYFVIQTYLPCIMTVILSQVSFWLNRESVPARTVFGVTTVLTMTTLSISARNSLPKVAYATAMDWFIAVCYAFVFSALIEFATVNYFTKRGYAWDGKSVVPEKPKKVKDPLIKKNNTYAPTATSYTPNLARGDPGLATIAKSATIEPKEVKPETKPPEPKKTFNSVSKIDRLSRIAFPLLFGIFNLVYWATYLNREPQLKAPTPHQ
T2 sequence (P47870 26-512): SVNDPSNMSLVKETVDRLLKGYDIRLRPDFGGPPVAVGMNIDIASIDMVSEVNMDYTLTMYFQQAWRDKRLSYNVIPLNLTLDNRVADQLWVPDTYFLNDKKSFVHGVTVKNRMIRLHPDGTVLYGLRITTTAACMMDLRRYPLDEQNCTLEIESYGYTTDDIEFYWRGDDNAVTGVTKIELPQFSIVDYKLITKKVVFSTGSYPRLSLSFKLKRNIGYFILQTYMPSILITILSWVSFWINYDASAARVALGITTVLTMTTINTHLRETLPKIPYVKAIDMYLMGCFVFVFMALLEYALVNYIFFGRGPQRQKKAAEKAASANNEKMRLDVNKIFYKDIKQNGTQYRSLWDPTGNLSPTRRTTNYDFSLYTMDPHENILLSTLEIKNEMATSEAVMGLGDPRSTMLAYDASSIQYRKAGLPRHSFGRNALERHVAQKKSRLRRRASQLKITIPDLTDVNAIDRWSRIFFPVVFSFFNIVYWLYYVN
T2 sequence (P18507 40-475 partner): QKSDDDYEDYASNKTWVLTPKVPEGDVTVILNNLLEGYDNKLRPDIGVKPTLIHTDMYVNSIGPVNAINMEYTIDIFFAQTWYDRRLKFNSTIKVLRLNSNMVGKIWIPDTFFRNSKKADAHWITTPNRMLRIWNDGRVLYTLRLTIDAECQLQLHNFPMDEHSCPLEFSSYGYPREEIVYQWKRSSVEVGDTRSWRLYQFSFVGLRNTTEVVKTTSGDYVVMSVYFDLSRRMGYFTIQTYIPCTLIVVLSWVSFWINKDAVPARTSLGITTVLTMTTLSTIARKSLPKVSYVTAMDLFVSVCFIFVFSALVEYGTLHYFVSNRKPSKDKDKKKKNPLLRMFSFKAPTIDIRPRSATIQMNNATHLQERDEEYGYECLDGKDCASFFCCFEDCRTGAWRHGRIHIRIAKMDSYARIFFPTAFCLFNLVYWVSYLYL
Description: as §1, §2, §3

[3] = molecular target: [35S]-TBPS binding in rat brain cortical membranes; experiment: Steroid inhibition of [35S]-TBPS binding, rat brain cortical membranes; settings: 3 nM [35S]-TBPS, in the presence of 5 μM GABA, read-out: 35S-TBPS Radioligand Displacement (IC50)
Description: TBPS binding assays using rat brain cortical membranes in the presence of 5 μM GABA has been described (Gee et al, J. Pharmacol. Exp. Ther. 1987, 241, 346-353; Hawkinson et al, Mol. Pharmacol. 1994, 46, 977-985; Lewin, A. H et al., Mol. Pharmacol. 1989, 35, 189-194).
Briefly, cortices are rapidly removed following decapitation of carbon dioxide-anesthetized Sprague-Dawley rats (200-250 g). The cortices are homogenized in 10 volumes of ice-cold 0.32 M sucrose using a glass/teflon homogenizer and centrifuged at 1500×g for 10 min at 4° C. The resultant supernatants are centrifuged at 10,000×g for 20 min at 4° C. to obtain the P2 pellets. The P2 pellets are resuspended in 200 mM NaCl/50 mM Na—K phosphate pH 7.4 buffer and centrifuged at 10,000×g for 10 min at 4° C. This washing procedure is repeated twice and the pellets are resuspended in 10 volumes of buffer. Aliquots (100 μL) of the membrane suspensions are incubated with 3 nM [^35S]-TBPS and 5 μL aliquots of test drug dissolved in dimethyl sulfoxide (DMSO) (final 0.5%) in the presence of 5 μM GABA. The incubation is brought to a final volume of 1.0 mL with buffer. Nonspecific binding is determined in the presence of 2 μM unlabeled TBPS and ranged from 15 to 25%. Following a 90 min incubation at room temp, the assays are terminated by filtration through glass fiber filters (Schleicher and Schuell No. 32) using a cell harvester (Brandel) and rinsed three times with ice-cold buffer. Filter bound radioactivity is measured by liquid scintillation spectrometry. Non-linear curve fitting of the overall data for each drug averaged for each concentration is done using Prism (GraphPad). […] The concentration of test compound producing 50% inhibition (IC50) of specific binding and the maximal extent of inhibition (Imax) are determined for the individual experiments with the same model used for the overall data and then the mean±SEM.s of the individual experiments are calculated.
Various compounds are or can be screened to determine their potential as modulators of [^35S]-TBPS binding in vitro. These assays are or can be performed in accordance with the above discussed procedures.

T1 sequence (P48169 36-554): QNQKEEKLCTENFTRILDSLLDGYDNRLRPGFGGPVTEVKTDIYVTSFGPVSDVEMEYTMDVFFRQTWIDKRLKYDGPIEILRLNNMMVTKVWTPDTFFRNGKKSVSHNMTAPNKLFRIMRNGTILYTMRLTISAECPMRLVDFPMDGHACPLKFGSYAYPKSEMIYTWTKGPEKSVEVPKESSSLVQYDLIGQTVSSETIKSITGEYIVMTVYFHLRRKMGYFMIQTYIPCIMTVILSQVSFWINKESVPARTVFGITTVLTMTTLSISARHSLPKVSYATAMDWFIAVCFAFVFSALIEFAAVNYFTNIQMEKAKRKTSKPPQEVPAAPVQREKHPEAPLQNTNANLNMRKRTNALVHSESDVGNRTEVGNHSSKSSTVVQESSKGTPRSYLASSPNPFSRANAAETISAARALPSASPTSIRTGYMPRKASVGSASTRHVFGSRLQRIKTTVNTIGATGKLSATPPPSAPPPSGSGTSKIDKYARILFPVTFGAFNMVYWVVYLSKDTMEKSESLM
T1 sequence (P28472 26-473): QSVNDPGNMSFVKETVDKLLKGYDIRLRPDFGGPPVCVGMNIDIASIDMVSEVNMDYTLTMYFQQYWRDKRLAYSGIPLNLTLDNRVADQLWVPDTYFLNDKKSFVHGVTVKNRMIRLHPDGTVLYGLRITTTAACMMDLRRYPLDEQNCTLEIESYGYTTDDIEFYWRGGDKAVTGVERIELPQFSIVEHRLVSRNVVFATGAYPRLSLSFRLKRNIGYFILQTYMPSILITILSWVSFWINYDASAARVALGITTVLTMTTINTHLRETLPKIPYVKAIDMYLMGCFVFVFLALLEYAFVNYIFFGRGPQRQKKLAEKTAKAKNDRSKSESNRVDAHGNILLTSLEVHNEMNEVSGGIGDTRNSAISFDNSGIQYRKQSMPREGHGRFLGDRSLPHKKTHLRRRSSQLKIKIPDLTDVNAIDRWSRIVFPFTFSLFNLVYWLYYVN
T1 sequence (O14764 25-452 partner): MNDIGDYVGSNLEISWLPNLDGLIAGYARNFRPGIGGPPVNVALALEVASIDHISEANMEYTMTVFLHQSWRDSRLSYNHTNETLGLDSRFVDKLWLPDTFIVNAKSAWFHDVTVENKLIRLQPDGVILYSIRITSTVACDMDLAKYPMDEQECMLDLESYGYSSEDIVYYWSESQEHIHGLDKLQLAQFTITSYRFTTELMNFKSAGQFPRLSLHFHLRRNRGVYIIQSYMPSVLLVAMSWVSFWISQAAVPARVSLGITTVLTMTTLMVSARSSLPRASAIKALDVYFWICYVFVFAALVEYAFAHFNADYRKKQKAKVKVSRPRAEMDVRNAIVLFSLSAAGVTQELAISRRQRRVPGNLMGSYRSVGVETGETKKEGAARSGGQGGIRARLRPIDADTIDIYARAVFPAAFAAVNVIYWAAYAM

SMILES: COC[C@]12CC[C@@](C)(O)C[C@@H]1CC[C@H]1[C@@H]3CC[C@H](C(=O)Cn4ncc5cc(Cl)ccc54)[C@@]3(C)CC[C@@H]12 [Compound 105]
- Emax at 10 µM [1]: 1000 to 1500%
- Emax at 10 µM [2]: 50 to 500%
- IC50 [3]: > 500 nM

SMILES: COC[C@]12CC[C@@](C)(O)C[C@@H]1CC[C@H]1[C@@H]3CC[C@H](C(=O)Cn4nnc5cc(F)c(F)cc54)[C@@]3(C)CC[C@@H]12 [Compound 98]
- Emax at 10 µM [1]: 1000 to 1500%
- Emax at 10 µM [2]: 500 to 1000%
- IC50 [3]: 50 to 100 nM

SMILES: COC[C@]12CC[C@@](C)(O)C[C@@H]1CC[C@H]1[C@@H]3CC[C@H](C(=O)Cn4nnc5ccc(OC)cc54)[C@@]3(C)CC[C@@H]12 [Compound 51]
- Emax at 10 µM [1]: 1000 to 1500%
- Emax at 10 µM [2]: 500 to 1000%
- IC50 [3]: 10 to 50 nM

SMILES: COC[C@]12CC[C@@](C)(O)C[C@@H]1CC[C@H]1[C@@H]3CC[C@H](C(=O)Cn4cc5ccc(Cl)cc5n4)[C@@]3(C)CC[C@@H]12 [Compound 113]
- Emax at 10 µM [1]: 500 to 1000%
- Emax at 10 µM [2]: 50 to 500%
- IC50 [3]: 100 to 500 nM

SMILES: COC[C@]12CC[C@@](C)(O)C[C@@H]1CC[C@H]1[C@@H]3CC[C@H](C(=O)Cn4ncc5ccncc54)[C@@]3(C)CC[C@@H]12 [Compound 45]
- Emax at 10 µM [1]: 1000 to 1500%
- Emax at 10 µM [2]: 500 to 1000%
- IC50 [3]: 50 to 100 nM

SMILES: COC[C@]12CC[C@@](C)(O)C[C@@H]1CC[C@H]1[C@@H]3CC[C@H](C(=O)Cn4nnc5cccc(Cl)c54)[C@@]3(C)CC[C@@H]12 [Compound 59]
- Emax at 10 µM [1]: 500 to 1000%
- Emax at 10 µM [2]: 500 to 1000%
- IC50 [3]: 10 to 50 nM

SMILES: COC[C@]12CC[C@@](C)(O)C[C@@H]1CC[C@H]1[C@@H]3CC[C@H](C(=O)Cn4nnc5c(OC)cccc54)[C@@]3(C)CC[C@@H]12 [Compound 58]
- Emax at 10 µM [1]: 500 to 1000%
- Emax at 10 µM [2]: 500 to 1000%
- IC50 [3]: < 10 nM

SMILES: COC[C@]12CC[C@@](C)(O)C[C@@H]1CC[C@H]1[C@@H]3CC[C@H](C(=O)Cn4ccnc4F)[C@@]3(C)CC[C@@H]12 [Compound 21]
- Emax at 10 µM [1]: 50 to 500%
- Emax at 10 µM [2]: 50 to 500%
- IC50 [3]: 100 to 500 nM

SMILES: COC[C@]12CC[C@@](C)(O)C[C@@H]1CC[C@H]1[C@@H]3CC[C@H](C(=O)Cn4nnc5ccc(OC)c(OC)c54)[C@@]3(C)CC[C@@H]12 [Compound 62]
- Emax at 10 µM [1]: 1000 to 1500%
- Emax at 10 µM [2]: 500 to 1000%
- IC50 [3]: 10 to 50 nM

SMILES: COC[C@]12CC[C@@](C)(O)C[C@@H]1CC[C@H]1[C@@H]3CC[C@H](C(=O)Cn4cc(Cl)cn4)[C@@]3(C)CC[C@@H]12 [Compound 18]
- Emax at 10 µM [1]: 1000 to 1500%
- Emax at 10 µM [2]: 1000 to 1500%

SMILES: COC[C@]12CC[C@@](C)(O)C[C@H]1CC[C@H]1[C@@H]3CC[C@H](C(=O)Cn4nc5ccc(F)c(F)c5n4)[C@@]3(C)CC[C@@H]12 [Compound 79]
- Emax at 10 µM [1]: 1000 to 1500%
- Emax at 10 µM [2]: 500 to 1000%
- IC50 [3]: < 10 nM

SMILES: COC[C@]12CC[C@@](C)(O)C[C@@H]1CC[C@H]1[C@@H]3CC[C@H](C(=O)Cn4ncc5ncc(Cl)cc54)[C@@]3(C)CC[C@@H]12 [Compound 69]
- Emax at 10 µM [1]: 1000 to 1500%
- Emax at 10 µM [2]: 500 to 1000%
- IC50 [3]: 10 to 50 nM

SMILES: COC[C@]12CC[C@@](C)(O)C[C@H]1CC[C@H]1[C@@H]3CC[C@H](C(=O)Cn4ccnn4)[C@@]3(C)CC[C@@H]12 [Compound 32]
- Emax at 10 µM [1]: 1000 to 1500%
- Emax at 10 µM [2]: 50 to 500%
- IC50 [3]: 50 to 100 nM

SMILES: COC[C@]12CC[C@@](C)(O)C[C@@H]1CC[C@H]1[C@@H]3CC[C@H](C(=O)Cn4ncc5ncc(Br)cc54)[C@@]3(C)CC[C@@H]12 [Compound 67]
- Emax at 10 µM [1]: 500 to 1000%
- Emax at 10 µM [2]: 50 to 500%
- IC50 [3]: 10 to 50 nM

SMILES: COC[C@]12CC[C@@](C)(O)C[C@H]1CC[C@H]1[C@@H]3CC[C@H](C(=O)Cn4nnc5c(F)cccc54)[C@@]3(C)CC[C@@H]12 [Compound 82]
- Emax at 10 µM [1]: 500 to 1000%
- Emax at 10 µM [2]: 500 to 1000%

SMILES: COC[C@]12CC[C@@](C)(O)C[C@H]1CC[C@H]1[C@@H]3CC[C@H](C(=O)Cn4nnc5cccc(F)c54)[C@@]3(C)CC[C@@H]12 [Compound 81]
- Emax at 10 µM [2]: 500 to 1000%
- IC50 [3]: 10 to 50 nM

SMILES: COC[C@]12CC[C@@](C)(O)C[C@@H]1CC[C@H]1[C@@H]3CC[C@H](C(=O)Cn4nc5cc(Cl)cnc5n4)[C@@]3(C)CC[C@@H]12 [Compound 99]
- Emax at 10 µM [2]: 1000 to 1500%
- IC50 [3]: 10 to 50 nM

SMILES: COC[C@]12CC[C@@](C)(O)C[C@@H]1CC[C@H]1[C@@H]3CC[C@H](C(=O)Cn4nc5cc(OC)cc(OC)c5n4)[C@@]3(C)CC[C@@H]12 [Compound 65]
- Emax at 10 µM [2]: 500 to 1000%
- IC50 [3]: < 10 nM

SMILES: COC[C@]12CC[C@@](C)(O)C[C@@H]1CC[C@H]1[C@@H]3CC[C@H](C(=O)Cn4nnc5ncc(Cl)cc54)[C@@]3(C)CC[C@@H]12 [Compound 101]
- Emax at 10 µM [2]: 500 to 1000%
- IC50 [3]: 10 to 50 nM

SMILES: COC[C@]12CC[C@@](C)(O)C[C@@H]1CC[C@H]1[C@@H]3CC[C@H](C(=O)Cn4cc5nccnc5n4)[C@@]3(C)CC[C@@H]12 [Compound 103]
- Emax at 10 µM [2]: 1000 to 1500%
- IC50 [3]: > 500 nM

SMILES: COC[C@]12CC[C@@](C)(O)C[C@@H]1CC[C@H]1[C@@H]3CC[C@H](C(=O)Cn4nnc5c(F)cc(F)cc54)[C@@]3(C)CC[C@@H]12 [Compound 56]
- Emax at 10 µM [2]: 50 to 500%
- IC50 [3]: 50 to 100 nM

SMILES: CCOC[C@]12CC[C@@](C)(O)C[C@@H]1CC[C@H]1[C@@H]3CC[C@H](C(=O)Cn4nnc(C)n4)[C@@]3(C)CC[C@@H]12 [Compound 25]
- Emax at 10 µM [2]: 500 to 1000%
- IC50 [3]: 10 to 50 nM
